The record followed here is patent publication US20180055816A1, “PYRANONAPHTHOQUINONE COMPOUNDS AND METHODS OF USE THEREOF” (University of Kentucky Research Foundation, priority 2016, published 2018).

The test system of one data set is HCT116 xenograft tumors. Nature of the data set: HCT116 colon cancer xenograft in nude mice. Format: in vivo. Conditions: 14 mg/kg intraperitoneal, daily five days a week, 2 weeks. The protocol: (§1) Male athymic nude mice (5-6 weeks old) were purchased from Taconic (Hudson, N.Y., USA). Experiments were carried out under a protocol approved by the University of Kentucky Institutional Animal Care and Use Committee. HCT116 and DLD-1 xenograft tumors were established by subcutaneously injecting 3×10^6 cells in a 1:1 mixture of media and Matrigel (BD Biosciences) into the right flank. For efficacy studies, mice were randomized among control and treated groups (n=8 per group) when tumors were well-established (˜120 mm^3). Compound 14 was prepared freshly in saline and administered by intraperitoneal injection at 14 mg/kg once per day, Mon-Fri per week. Control mice received saline solution. Tumor dimensions were measured using a caliper and tumor volumes were calculated as mm^3=π/6× larger diameter×(smaller diameter)^2. Tumors were excised and snap frozen in liquid nitrogen, homogenized in 2% SDS lysis buffer and then processed for Western blot analysis as described previously^5.

For a further data set, the system named is DLD-1 xenograft tumors. In words: DLD-1 colon cancer xenograft in nude mice. It is filed as in vivo. Conditions: 14 mg/kg intraperitoneal, daily five days a week, 2 weeks. The protocol:
as §1

Data set [1] can be described thus: Tolerability in tumor-bearing nude mice (body weight, maximum tolerated dose). Format: in vivo. How it is done: Mice bearing HCT116 or DLD-1 CRC xenograft tumors were treated with compound 14 at 14 mg/kg or with vehicle control once per day for 5 consecutive days each week. The mouse body weight was measured twice per week in control and treated groups using a weighing scale. The results represent the mean body weight±s.e.m. (n=8 mice/group). *P>0.05 for 14 versus vehicle control in HCT116 or DLD-1 xenograft tumors. Statistical significance was determined by the Student's t-test.
as §1, with “Tumors were excised and snap frozen in liquid nitrogen, homogenized in 2% SDS lysis buffer and then processed for Western blot analysis as described previously^5.” left out

The subject of data set [2] is 4E-BP1 phosphorylation. Nature of the data set: Western blot of xenograft tumor extracts. It is filed as in vivo, mice. Conditions: HCT116 or DLD-1 xenograft tumors, 6 h after the final treatment, 14 mg/kg. How it is done:
FIGS. 34A-B. FB induces ROS production to repress 4E-BP1 phosphorylation and tumor growth in vivo. (A) Western blot analysis of representative tumors collected from mice in FIG. 32 6 h after the final treatment with 14 or vehicle control. (B) A proposed model for the anticancer mechanism of FB through targeting Prx1/Grx3 to induce ROS accumulation leading to inhibition of mTORC1/4E-BP1-mediated tarnaltion.
as §1

Data set [3] concerns HCT116 cells. Nature of the data set: Cell growth / cytotoxicity in HCT116 cells. Format: cell-based, human. Conditions: Homo sapiens, HCT-116; colorectal cancer cell line HCT116. How it is done: (§2) Compounds that pass this single dose filter are then tested in a CRC (HCT116) in vitro cytotoxicity assay and, in parallel, an in vitro assay to assess propensity for intracellular reactive oxygen species (ROS) production using the redox sensitive probe CeIIROX® Deep Red reagent (Invitrogen) by flow cytometry analysis (47).
(§3) Cell growth was assessed as described previously. Briefly, 5×10^4 cells were seeded in 6-well plates in triplicates. After 24 h, cells were treated with the indicated compounds and incubated at 37° C. The cells were cultured for 3 days and the number of viable cells was counted using the Vi-CELL XR 2.03 (Beckman Coulter, Brea, Calif.). For apoptosis, cells were analyzed by flow cytometry using the Annexin V-FITC Apoptosis Detection Kit according to the manufacturer's protocol (BD Biosciences, San Jose, Calif.).

Data set [4] relates to 4E-BP1 phosphorylation. Nature of the data set: Inhibition of 4E-BP1 phosphorylation in HCT116 cells (Western blot). It is filed as cell-based, human. Conditions: for inhibition of 4E-BP1 phosphorylation: 12 h. How it is done: as §2
(§4) Cells were lysed in NP-40 lysis buffer (50 mM Tris-HCl, pH 7.5, 150 mM NaCl, 1 mM EDTA, 1% NP-40, 10% glycerol, protease and phosphatase inhibitor cocktail). Western blot analysis were performed using equivalent total protein loadings as described previously. For immunoprecipitation, the cell lysates were incubated with the indicated antibody overnight followed by incubation with a 50% slurry of protein G sepharose beads for 3 h at 4° C. The beads were washed three times with the lysis buffer, and the immunoprecipitated protein complexes were resuspended in 2× Laemmli sample buffer followed by western blot analysis.

Data set [5] concerns intracellular reactive oxygen species (ROS). Nature of the data set: Intracellular ROS production, CellROX Deep Red flow cytometry, HCT116 cells. Format: cell-based, human. The protocol:
as §2
The ROS production was determined using the CellROX Deep Red Flow Cytometry Assay Kit according to the manufacturer's protocol (Life Technologies). Briefly, cells were treated with 2 μM of the indicated compounds or DMSO as control for 1 h. After treatment, cells were incubated with 0.5 μM of CellROX Deep Red reagent for 1 h at 37° C., washed twice with PBS and immediately analyzed by a FACScan flow cytometer. For the measurement of cellular H2O2 level, cells were treated with 2 μM of the indicated compounds for 5 h.

The test system of data set [6] is cap-dependent translation. Nature of the data set: Cap-dependent translation bicistronic luciferase reporter assay in HCT116 cells. It is filed as cell-based, human. Conditions: 12 h.
A further data set deals with T1, Prx1 (Homo sapiens, UniProt Q06830).
T1 sequence (Q06830 1-199): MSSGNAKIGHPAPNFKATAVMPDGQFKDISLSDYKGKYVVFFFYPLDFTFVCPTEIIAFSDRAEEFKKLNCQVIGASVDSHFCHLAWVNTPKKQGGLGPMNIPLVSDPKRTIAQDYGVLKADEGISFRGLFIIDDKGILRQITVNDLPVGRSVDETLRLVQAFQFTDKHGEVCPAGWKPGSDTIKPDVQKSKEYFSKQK
In words: Prx1 catalytic activity inhibition. It is filed as biochemical. Conditions: recombinant Prx1, 1 hour incubation. How it is done:
The recombinant Prx1 protein was incubated with the indicated concentration of FB, 12, or conoidin A for 1 hour. Data are presented as mean±s.e.m. (n=3 technical replicates per condition). […]. Statistical significance was determined by the Student's t-test.
Prx1 and Grx3 are antioxidant enzymes known to regulate oxidative stress. Prx1 catalyzes peroxide reduction of H2O2, whereas Grx3 functions as glutathione (GSH)-dependent oxidoreductase by participating in the conversion of reduced GSH to oxidized glutathione disulfide (GSSG). […] While Grx3 biochemical assays are lacking, FB and active analogs could lead to a decrease in GSH levels and an increase in GSSG levels in HCT116 cells (FIGS. 23A-B). As antioxidant enzymes utilize cysteine-containing active sites to reduce various cellular peroxide or disulfide substrates, the role of Prx1/Grx3 cysteines in FB ligand-binding was assessed through replacing their cysteines to alanines. […] Finally, mass spectrometry analysis confirmed the covalent modification of Prx1 and Grx3 by FB at these specific target sites. These cumulative studies provide strong validation of Prx1 and Grx3 as the predominate molecular targets of PNQs in cancer cells.

For data set [7], the system named is HCT116 cells. In words: Apoptosis assay (propidium iodide/Annexin V flow cytometry) in HCT116 cells. Conditions: HCT116, 72 hours. Format: cell-based, human. The protocol: (A) HCT116 cells were treated with different concentrations of FB and 12 for 12 hours. Cell lysates were precipitated with m^7GTP sepharose beads followed by Western blot analysis for the indicated proteins. (B) Inhibition of cap-dependent translation activity in HCT116 cells that were treated with the indicated compounds or DMSO as control for 12 hours was determined and analyzed as in FIG. 10A. (C) and (D) HCT116 cells were treated with different concentrations of FB and 12 for 72 hours. Apoptotic cells were analyzed by propidium iodide/Annexin V staining and flow cytometry (C). The results are expressed as the increased levels of apoptosis (D) by subtracting each of the DMSO-treated controls. All graphic data are presented as mean±s.e.m. (n=3 technical replicates per condition). *P<0.001 for 12 versus FB. Statistical significance was determined by the Student's t-test.
as §3

For another data set, the system named is S6 phosphorylation. In words: S6 phosphorylation in HCT116 cells (Western blot). It is filed as cell-based, human. Conditions: HCT116, 12 h; 2 μM FB or UCF76-A, 100 nM rapamycin, 0.5 μM AZD8055. The protocol:
(§5) HCT116 cells were treated with 1 μM MK2206 and 100 nM PD0325901 alone and in combination, 100 nM rapamycin, 0.5 μM AZD8055, 2 μM UCF76-A or 2 μM FB for 12 h followed by Western blot analysis for the indicated proteins.
as §4

The subject of a further data set is AKT phosphorylation. In words: AKT phosphorylation in HCT116 cells (Western blot). Format: cell-based, human. Conditions: HCT116, 12 h; 2 μM FB or UCF76-A, 0.5 μM AZD8055, 1 μM MK2206. How it is done: as §5, §4
Another data set deals with p70S6K phosphorylation. In words: p70S6K phosphorylation in HCT116 cells (Western blot). It is filed as cell-based, human. Conditions: HCT116, 12 h; 2 μM FB or UCF76-A, 100 nM rapamycin, 0.5 μM AZD8055. The protocol:
as §5, §4

Entries after “also recorded” stand apart in the source; their conditions may differ.

Take `O=C1C[C@H]2O[C@@H](CCC(F)(F)F)C3=C(C(=O)c4c(Cl)ccc(OP(=O)(O)O)c4C3=O)[C@H]2O1` [Compound 14, (3aR,5S,11bR)-10-Chloro-2,6,11-trioxo-5-(3,3,3-trifluoropropyl)-3,3a,5,6,11,11b-hexahydro-2H-benzo[g]furo[3,2-c]isochromen-7-yl dihydrogen phosphate]: the tumor reduction in the data set on HCT116 xenograft tumors is reported as 64%; in the data set with DLD-1 xenograft tumors it was 56%. Moreover, the body weight loss entry in data set [1] (14 mg/kg once per day, 5 days each week, HCT116 or DLD-1 xenograft mice) is listed as “without significant weight loss; also recorded: does not cause significant weight loss”. In [1] (male, athymic nude, mouse, in vivo, intraperitoneal, 14 mg/kg, nude mice), this molecule yielded an MTD of 14 mg/kg. Further, the “4E-BP1 phosphorylation in tumor extracts” value in the data set with 4E-BP1 phosphorylation [2] was “inhibition of 4E-BP1 phosphorylation”. Also, in “Aqueous solubility”, the aqueous solubility entry is “aqueous soluble”.
On to `C[C@@H]1CC(=O)[C@@H](O)[C@]2(O1)O[C@@H]1CC(=O)O[C@@H]1C1=C2C(=O)c2c(O)cccc2C1=O` [GC, griseusen C], for which inhibition in the data set with HCT116 cells [3] was half-maximal at 0.127 µM (IC50). Also, the “inhibition of 4E-BP1 phosphorylation” value in the data set with 4E-BP1 phosphorylation [4] is “notable inhibition”. Moreover, the “ROS production compared with b47” value in data set [5] is reported as “slightly lower”.
On to `O=C1C[C@H]2O[C@@H](CCC(F)(F)F)C3=C(C(=O)c4c(Cl)ccc(O)c4C3=O)[C@H]2O1` [Compound 12, (3aR,5S,11bR)-10-Chloro-7-hydroxy-5-(3,3,3-trifluoropropyl)-3,3a,5,11b-tetrahydro-2H-benzo[g]furo[3,2-c]isochromene-2,6,11-trione], for which the “fold more potent than FB as an inhibitor of 4E-BP1 phosphorylation” value in the data set on 4E-BP1 phosphorylation [4] (relative to FB) is “up to 4 fold”. Also, the “inhibition of cap-dependent translation” value in data set [6] was “more potent that FB”. For the same molecule, the “inhibition of Prx1 catalytic activity” value on Prx1 was “potently inhibit”. Besides, in the data set on HCT116 cells [7], the “induction of apoptosis compared with FB” value is on record as “more potent that FB”.
For the molecule `COc1ccc(-c2ccc3c(N4CCOC[C@@H]4C)nc(N4CCOC[C@@H]4C)nc3n2)cc1CO` [AZD8055], the “inhibition of S6 phosphorylation” value with S6 phosphorylation is “potently inhibited”. Besides, in the data set on AKT phosphorylation, the “inhibition of AKT phosphorylation” value was “inhibited”. Further, in the data set with p70S6K phosphorylation, the “inhibition of p70S6K phosphorylation” value is given as “potently inhibited”.
With `NC1(c2ccc(-c3nc4ccn5c(=O)[nH]nc5c4cc3-c3ccccc3)cc2)CCC1` [MK2206], the “inhibition of 4E-BP1 phosphorylation” value with 4E-BP1 phosphorylation [4] is “negligible modulation”. Further, in the data set on AKT phosphorylation, the “inhibition of AKT phosphorylation” value is given as “effective inhibition”.
